The text below walks through data of patent US11098042B2, “Inhibitors of influenza virus replication and uses thereof” (SUNSHINE LAKE PHARMA CO., LTD., priority 2017, dated 2021).

One data set has as its system virus H1N1 A/Weiss/43. The experiment in a line: microbe, parasite or virus in culture. In kind it is cell-based. The following applies: Influenza A virus, 120 h; inhibition of CPE of H1N1 A/Weiss/43 in MDCK cells, 5 days, CCK-8.
A further data set in a line: in vivo. The following applies: Sprague-Dawley (SD), rat.

Experimental for in vivo: Pharmacokinetic characteristics of the compounds of the invention in SD rat were evaluated. The compounds disclosed herein were administered in form of a saline solution containing 5% DMSO, 5% Kolliphor HS 15 and 90% Saline. For intravenous administration (iv), the animals were administered with a dose of 1 mg/kg, and blood samples (0.3 mL) were collected at the time points of 0.083, 0.25, 0.5, 1.0, 2.0, 5.0, 7.0 and 24 h after drug administration, then each blood sample was processed to separate plasma by centrifugation at 3000 rpm or 4000 rpm for 10 minutes. […] Plasma samples were collected and stored at −20° C. or −70° C. until LC/MS/MS analysis.

In turn, `O=C(O)[C@H]1C2CCC(CC2)[C@@H]1Nc1cc(-c2ccc(C3CC3)o2)nc(-c2n[nH]c3ncc(F)cc23)n1` [Example 15, (2S,3S)-3-((6-(5-cyclopropylfuran-2-yl)-2-(5-fluoro-1H-pyrazolo[3,4-b]pyridin-3-yl)pyrimidin-4-yl)amino)bicyclo[2.2.2]octane-2-carboxylic Acid] yielded an EC50 in the data set with virus H1N1 A/Weiss/43 of 303 pM.
The same measure, in the same setting: for `O=C(O)C1C2CCC(CC2)C1Nc1cc(-c2cccs2)nc(-c2n[nH]c3ncc(Cl)cc23)n1` (racemic) [Example 29, (+/−)-trans-3-((2-(5-chloro-1H-pyrazolo[3,4-b]pyridin-3-yl)-6-(thiophen-2-yl)pyrimidin-4-yl)amino)bicyclo[2.2.2]octane-2-carboxylic Acid] the value was 203 pM; for `O=C(O)C1C2CCC(CC2)C1Nc1cc(-c2ccco2)nc(-c2n[nH]c3ncc(Cl)cc23)n1` (racemic) [Example 1, (+/−)-trans-3-((2-(5-chloro-1H-pyrazolo[3,4-b]pyridin-3-yl)-6-(furan-2-yl)pyrimidin-4-yl)amino)bicyclo[2.2.2]octane-2-carboxylic Acid], 59 pM.
In the data set “in vivo” (iv, 1 mg/kg), `O=C(O)C1C2CCC(CC2)C1Nc1nc(-c2n[nH]c3ncc(Cl)cc23)nc(-c2ccco2)c1F` (racemic) [Example 2, (+/−)-trans-3-((2-(5-chloro-1H-pyrazolo[3,4-b]pyridin-3-yl)-5-fluoro-6-(furan-2-yl)pyrimidin-4-yl)amino)bicyclo[2.2.2]octane-2-carboxylic Acid] yielded an AUC(0-inf) of 910 ng·h/mL, an AUC(0-t) of 909 ng·h/mL and a clearance of 18.5 mL/min/kg. In the data set “in vivo” (po, 5 mg/kg), this compound displayed an AUC(0-inf) of 1060 ng·h/mL and an AUC(0-t) of 1060 ng·h/mL. In the data set on virus H1N1 A/Weiss/43, the EC50 was 54 pM.
Compound `CC(C)n1ccc2c(N[C@H]3C4CCC(CC4)[C@@H]3C(=O)O)nc(-c3n[nH]c4ncc(F)cc34)nc21` [Example 34, (2S,3S)-3-((2-(5-fluoro-1H-pyrazolo[3,4-b]pyridin-3-yl)-7-isopropyl-7H-pyrrolo[2,3-d]pyrimidin-4-yl)amino)bicyclo[2.2.2]octane-2-carboxylic Acid] came in with an EC50 with virus H1N1 A/Weiss/43 of 227 pM.
On to `O=C(O)C1C2CCC(CC2)C1Nc1cc(C2CC2)nc(-c2n[nH]c3ncc(Cl)cc23)n1` (racemic) [Example 30, (+/−)-trans-3-((2-(5-chloro-1H-pyrazolo[3,4-b]pyridin-3-yl)-6-cyclopropylpyrimidin-4-yl)amino)bicyclo[2.2.2]octane-2-carboxylic Acid], for which the EC50 with virus H1N1 A/Weiss/43 came to 350 pM.
`O=C(O)C1C2CCC(CC2)C1Nc1cc(-c2cc3ccccc3o2)nc(-c2n[nH]c3ncc(Cl)cc23)n1` (racemic) [Example 14, (+/−)-trans-3-((6-(benzofuran-2-yl)-2-(5-chloro-1H-pyrazolo[3,4-b]pyridin-3-yl)pyrimidin-4-yl)amino)bicyclo[2.2.2]octane-2-carboxylic Acid] had a concentration for a half-maximal effect (EC50) in the data set on virus H1N1 A/Weiss/43 of 696 pM.
The same measure, in the same setting: for `O=C(O)C1C2CCC(CC2)C1Nc1cc(-c2ccccc2)nc(-c2n[nH]c3ncc(Cl)cc23)n1` (racemic) [Example 16, (+/−)-trans-3-((2-(5-chloro-1H-pyrazolo[3,4-b]pyridin-3-yl)-6-phenylpyrimidin-4-yl)amino)bicyclo[2.2.2]octane-2-carboxylic Acid] the value was 140 pM.
Turning to `Cn1ccc2c(NC3C4CCC(CC4)C3C(=O)O)nc(-c3n[nH]c4ncc(Cl)cc34)nc21` (racemic) [Example 3, (+/−)-trans-3-((2-(5-chloro-1H-pyrazolo[3,4-b]pyridin-3-yl)-7-methyl-7H-pyrrolo[2,3-d]pyrimidin-4-yl)amino)bicyclo[2.2.2]octane-2-carboxylic Acid], the midpoint of the response with virus H1N1 A/Weiss/43, the EC50, lay at 390 pM.
Regarding `CC(C)(C)[C@@H](CC(=O)O)Nc1nc(-c2n[nH]c3ncc(Cl)cc23)nc(-c2ccco2)c1F` [Example 4, (R)-3-((2-(5-chloro-1H-pyrazolo[3,4-b]pyridin-3-yl)-5-fluoro-6-(furan-2-yl)pyrimidin-4-yl)amino)-4,4-dimethylpentanoic Acid], in the data set with virus H1N1 A/Weiss/43, the half-maximal effective concentration (EC50) came out at 75 pM.
Consider `O=C(O)C1C2CCC(CC2)C1Nc1cc(-c2ccc3ccccc3c2)nc(-c2n[nH]c3ncc(Cl)cc23)n1` (racemic) [Example 31, (+/−)-trans-3-((2-(5-chloro-1H-pyrazolo[3,4-b]pyridin-3-yl)-6-(naphthalene-2-yl)pyrimidin-4-yl)amino)bicyclo[2.2.2]octane-2-carboxylic Acid], for which the EC50 in the data set on virus H1N1 A/Weiss/43 was 513 pM. This EC50 is about 6.8-fold higher than that of the compound before.
